For 1 compound, half-life and CLint scaled results are on record in ChEMBL document CHEMBL5634101, “Discovery of NLRP3 inhibitors using machine learning: Identification of a hit compound to treat NLRP3 activation-driven diseases” (Eur J Med Chem, 2023).

A short description of data set [1]: Stability in human liver microsomes assessed as half-life at 1.5 uM measured upto 45 mins in presence of NADPH by LC-MS/MS analysis. The format is ADME, Microsome.
Data set [2] can be described thus: Stability in human liver microsomes assessed as intrinsic clearance at 1.5 uM measured upto 45 mins in presence of NADPH by LC-MS/MS analysis. It counts as ADME, Microsome. The following applies: read-out: CLH. On the technique in general: Microsomes from liver hold many membrane-bound enzymes, among them those of drug oxidation.

As for `O=C(c1ccc(F)cc1)C1CCN(CCn2c(=O)[nH]c3ccccc3c2=O)CC1` [KETANSERIN], the half-life (as a rule, the time in which the quantity being followed falls by half) at 1.5 µM in data set [1] was found to be 1.68 h. Besides, in data set [2], the CLint scaled at 1.5 µM was found to be 17.3 mL/min/kg.
